Data reported in US11806344B2, “Pharmaceutical composition comprising mineralocorticoid receptor antagonist and use thereof” (priority 2016, dated 2023).
Where two headings read alike, the source gives them in different places.

Experiments:
[1] = rat, in vivo, po, 1 mg/kg
Protocol: Blood collection: The animals were fixed and had their tails warmed in a water bath 10 min prior to blood collection; about 100 μL of blood was collected through the tail vein for each animal and put into an anticoagulation tube containing hepatin; the blood samples were subject to centrifugation at 8000 rpm for 6 min at 4° C. to obtain plasma samples, which had to be obtained within 30 minutes after blood was collected; the plasma samples were stored in a freezer at −80° C. for future tests.
Sample analysis: 50 μL of each plasma sample from the freezer was transferred to a centrifugal tube; 100 μL of water and 400 μL of MTBE standard solution (50 ng/mL) were added into the tube and well mixed with the plasma; the obtained mixture was mixed for 10 minutes using a vortex mixer and then subject to centrifugation for 5 minutes (12000 r/min); 300 μL of the supernatant was transferred to another centrifugal tube and blown dry with nitrogen gas; the resultant substance was dissolved in 200 μL of a solution consisting of methanol and water at a ratio of 1:1, of which 20 μL was used for the LC-MS/MS measurement.
Data processing: the compound concentration was output by Analyst 1.6.1 (AB Sciex); the means, standard deviations, and variation coefficients were calculated using Microsoft Excel (no calculation needed if these parameters were directed output by Analyst 1.6.1), and pharmacokinetic parameters were determined using the NCA analysis object in Pharsight Phoenix 6.3.

[2] = Absorption of Compound I of different particle sizes/formulations in male SD rats (Example 3-1); format: in vivo; conditions: intragastric single dose 1.0 mg/kg; for AUCINF: 1 mg/kg; for BA %: absolute bioavailability vs IV 2.0 mg/kg
Protocol: Compound I with different formulations and/or different D90 values was compared for absorptions in male SD rats.
Samples to test: Compound I was prepared by the method as described in Example 1 of WO2014094664A1, and then pulverized to provide Compound I samples having D90 of 538 nm, 3.8 μm, 21.7 μm, 41.5 μm and 71.6 μm, respectively; immediately before the tests, these samples were suspended in 0.5% MC to obtain 1 mg/mL suspensions.
Solutions: 5% DMSO+95% (solution containing 6% HP-β-CD)
Solid dispersions: Compound I: Polyvinylpyrrolidone K30=1:8 (w/w)
The formulation for intravenous injection was a solution where Compound I was dissolved in 5% DMSO+95% (6% HP-β-CD solution), and SD rats were administered at a dose of 2 mg/kg.

[3] = Absorption of Compound I D90 5 μm suspension in Beagle dogs (Example 3-2); format: in vivo; conditions: intragastric single dose 0.5 mg/kg, suspension in 0.5% MC
Protocol: Sample to test: Compound I having D90 of 5 μm was suspended in 0.5% MC immediately before tests, to prepare 0.25 mg/mL suspension.
Animals: Three Beagle Dogs.
(1) All animals fasted for 12 h or longer before drug administration, and food was supplied 4 h after drug administration, with ad libitum access to water all the time. […] The collected blood was stored in a dry tube with heparin (normal saline containing 0.1% heparin sodium). (2) Plasma preparation: The whole blood samples collected in step (1) were subject to centrifugation at a low speed (8000 r/min, 6 min, 4° C.) to separate the plasma (the whole blood was stored in a mobile freezer at about 0 to 4° C., and plasma had to be separated within 30 minutes after the blood collection), and the plasma was kept in dark in a freezer at −70° C. (or lower) for future analysis.

[4] = test system: patients with diabetic nephrophthy; conditions: cited from earlier work

Compound | AUCINF [1] | AUCINF [2] | BA % [2] | other results
Hydroxypropyl methyl cellulose | 483 ng·h/mL |  |  | 
N#Cc1ccc(N2N=C3c4ccc(C(=O)N5CCC(O)CC5)nc4CC[C@@H]3[C@@H]2C2CCCC2)cc1Cl [Compound I with D90 of 41.5 μm] |  | 545 ng·h/mL | 34.8% | 
N#Cc1ccc(N2N=C3c4ccc(C(=O)N5CCC(O)CC5)nc4CC[C@@H]3[C@@H]2C2CCCC2)cc1Cl [Compound I with D90 of 3.8 μm] |  | 1045 ng·h/mL | 66.9% | 
Hydroxypropyl cellulose | 535 ng·h/mL |  |  | 
hydroxypropyl-β-cyclodextrin | 350 ng·h/mL |  |  | 
Poloxamer 188 | 712 ng·h/mL |  |  | 
N#Cc1ccc(N2N=C3c4ccc(C(=O)N5CCC(O)CC5)nc4CC[C@@H]3[C@@H]2C2CCCC2)cc1Cl [Compound I with D90 of 72.0 μm] |  | 207 ng·h/mL | 13.2% | BA % ([2]; listed as Compound I with D90 of 72.2 μm): 13.2%
Polysorbate 80 | 654 ng·h/mL |  |  | 
Polyethylene glycol 400 | 613 ng·h/mL |  |  | 
Carbomer | 289 ng·h/mL |  |  | 
N#Cc1ccc(N2N=C3c4ccc(C(=O)N5CCC(O)CC5)nc4CC[C@@H]3[C@@H]2C2CCCC2)cc1Cl [Compound I having D90 of 5 μm] |  |  |  | AUC(0-inf) ([3]; dog, plasma, po): 506 ng·h/mL; BA % [3]: 57.4%
N#Cc1ccc(N2N=C3c4ccc(C(=O)N5CCC(O)CC5)nc4CC[C@@H]3[C@@H]2C2CCCC2)cc1Cl [Compound I with D90 of 538 nm] |  | 1287 ng·h/mL | 82.3% | 
N#Cc1ccc(N2N=C3c4ccc(C(=O)N5CCC(O)CC5)nc4CC[C@@H]3[C@@H]2C2CCCC2)cc1Cl [Compound I with D90 of 21.7 μm] |  | 854 ng·h/mL | 54.6% | 
Polyvinyl alcohol | 603 ng·h/mL |  |  | 
CCOc1ncc(C)c2c1[C@H](c1ccc(C#N)cc1OC)C(C(N)=O)=C(C)N2 [Finerenone] |  |  |  | UACR reduced ([4]; Finerenone 7.5 mg/day): 21%; incidence of discontinuation due to onset of hyperkalemia ([4]; Finerenone 7.5 mg/day): 2.1%; UACR reduced ([4]; Finerenone 10 mg/day): 24%; incidence of discontinuation due to onset of hyperkalemia ([4]; Finerenone 10 mg/day): 0%; UACR reduced ([4]; Finerenone 15 mg/day): 33%; incidence of discontinuation due to onset of hyperkalemia ([4]; Finerenone 15 mg/day): 3.2%; UACR reduced ([4]; Finerenone 20 mg/day): 38%; incidence of discontinuation due to onset of hyperkalemia ([4]; Finerenone 20 mg/day): 1.7%
Polyoxyl(40) stearate | 427 ng·h/mL |  |  | 
